{"source": "ChEMBL document CHEMBL3132769", "about": "“Fragment growing to retain or alter the selectivity of anchored kinase hinge-binding fragments” (Medchemcomm, 2014)", "key": {"[1]": {"biological_target": "T1, Serine/threonine-protein kinase DCLK2 (Homo sapiens) (UniProt Q8N568)", "T1 sequence (whole entry)": "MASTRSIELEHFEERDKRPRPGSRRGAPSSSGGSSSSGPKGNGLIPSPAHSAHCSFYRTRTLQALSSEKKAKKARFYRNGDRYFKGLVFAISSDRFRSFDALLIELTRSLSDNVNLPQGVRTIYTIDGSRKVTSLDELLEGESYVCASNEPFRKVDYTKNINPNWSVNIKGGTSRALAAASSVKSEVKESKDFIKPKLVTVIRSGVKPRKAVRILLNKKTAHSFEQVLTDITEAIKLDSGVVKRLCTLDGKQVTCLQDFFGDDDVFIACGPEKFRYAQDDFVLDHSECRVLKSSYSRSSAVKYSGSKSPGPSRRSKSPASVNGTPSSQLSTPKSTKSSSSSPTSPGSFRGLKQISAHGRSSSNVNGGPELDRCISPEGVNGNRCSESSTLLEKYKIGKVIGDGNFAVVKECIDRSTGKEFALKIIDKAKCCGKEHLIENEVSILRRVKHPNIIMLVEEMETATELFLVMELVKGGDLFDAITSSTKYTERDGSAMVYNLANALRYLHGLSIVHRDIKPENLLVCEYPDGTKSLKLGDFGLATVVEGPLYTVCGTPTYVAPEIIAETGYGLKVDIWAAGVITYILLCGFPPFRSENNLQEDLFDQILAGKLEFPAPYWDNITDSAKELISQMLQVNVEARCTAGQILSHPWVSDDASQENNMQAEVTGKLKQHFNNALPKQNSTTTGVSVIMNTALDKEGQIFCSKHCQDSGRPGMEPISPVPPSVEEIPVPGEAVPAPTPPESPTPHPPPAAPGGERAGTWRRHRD", "test": "Inhibition of human full length DCAMKL2 expressed in baculovirus assessed as substrate phosphorylation using fluorescence-labelled peptides as substrate at 95 uM after 90 mins by microfluidic peptide phosphorylation assay"}, "[2]": {"biological_target": "Protein kinase C theta type (Homo sapiens) (UniProt Q04759)", "sequence (Q04759 whole entry, looked up, the tested form may be a part)": "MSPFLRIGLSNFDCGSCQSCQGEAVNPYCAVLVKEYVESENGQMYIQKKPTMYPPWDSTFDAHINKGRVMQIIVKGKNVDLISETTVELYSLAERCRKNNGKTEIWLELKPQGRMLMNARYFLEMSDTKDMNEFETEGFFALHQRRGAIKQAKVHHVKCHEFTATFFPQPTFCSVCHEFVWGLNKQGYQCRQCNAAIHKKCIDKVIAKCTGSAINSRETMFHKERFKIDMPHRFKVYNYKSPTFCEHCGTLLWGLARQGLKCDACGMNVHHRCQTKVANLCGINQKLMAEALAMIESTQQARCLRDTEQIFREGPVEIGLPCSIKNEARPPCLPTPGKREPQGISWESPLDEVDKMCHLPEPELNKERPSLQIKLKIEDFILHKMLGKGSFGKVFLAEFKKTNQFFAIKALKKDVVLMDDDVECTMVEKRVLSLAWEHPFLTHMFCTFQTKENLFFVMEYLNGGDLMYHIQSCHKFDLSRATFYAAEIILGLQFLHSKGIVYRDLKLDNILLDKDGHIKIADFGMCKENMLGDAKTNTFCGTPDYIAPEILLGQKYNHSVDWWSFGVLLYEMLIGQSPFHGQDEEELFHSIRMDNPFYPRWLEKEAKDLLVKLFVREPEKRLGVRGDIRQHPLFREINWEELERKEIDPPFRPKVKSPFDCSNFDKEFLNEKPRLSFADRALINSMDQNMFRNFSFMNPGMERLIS", "test": "Inhibition of human truncated PKC theta expressed in baculovirus assessed as substrate phosphorylation using fluorescence-labelled peptides as substrate at 95 uM after 90 mins by microfluidic peptide phosphorylation assay"}, "[3]": {"biological_target": "Casein kinase I isoform alpha (Homo sapiens) (UniProt P48729)", "sequence (P48729 2-337 limits assumed)": "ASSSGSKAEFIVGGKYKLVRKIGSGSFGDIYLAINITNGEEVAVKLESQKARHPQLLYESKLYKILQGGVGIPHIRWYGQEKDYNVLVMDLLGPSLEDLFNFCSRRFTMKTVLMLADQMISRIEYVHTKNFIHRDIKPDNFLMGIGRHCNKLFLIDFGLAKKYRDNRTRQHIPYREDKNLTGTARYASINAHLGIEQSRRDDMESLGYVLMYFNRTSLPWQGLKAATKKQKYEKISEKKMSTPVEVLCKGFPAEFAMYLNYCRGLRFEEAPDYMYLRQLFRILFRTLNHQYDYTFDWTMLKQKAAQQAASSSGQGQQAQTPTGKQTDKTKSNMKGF", "test": "Inhibition of human full length CSNK1A1 expressed in baculovirus assessed as substrate phosphorylation using fluorescence-labelled peptides as substrate at 95 uM after 90 mins by microfluidic peptide phosphorylation assay"}, "Homo sapiens": {"species": "Homo sapiens", "test": "Inhibition of human full length PKA expressed in baculovirus assessed as substrate phosphorylation using fluorescence-labelled peptides as substrate at 95 uM after 90 mins by microfluidic peptide phosphorylation assay"}, "[4]": {"system": "Fibroblast growth factor receptor 2 (Homo sapiens), P21802 [N549H]", "sequence (P21802 whole entry N549H, the tested form may be a part)": "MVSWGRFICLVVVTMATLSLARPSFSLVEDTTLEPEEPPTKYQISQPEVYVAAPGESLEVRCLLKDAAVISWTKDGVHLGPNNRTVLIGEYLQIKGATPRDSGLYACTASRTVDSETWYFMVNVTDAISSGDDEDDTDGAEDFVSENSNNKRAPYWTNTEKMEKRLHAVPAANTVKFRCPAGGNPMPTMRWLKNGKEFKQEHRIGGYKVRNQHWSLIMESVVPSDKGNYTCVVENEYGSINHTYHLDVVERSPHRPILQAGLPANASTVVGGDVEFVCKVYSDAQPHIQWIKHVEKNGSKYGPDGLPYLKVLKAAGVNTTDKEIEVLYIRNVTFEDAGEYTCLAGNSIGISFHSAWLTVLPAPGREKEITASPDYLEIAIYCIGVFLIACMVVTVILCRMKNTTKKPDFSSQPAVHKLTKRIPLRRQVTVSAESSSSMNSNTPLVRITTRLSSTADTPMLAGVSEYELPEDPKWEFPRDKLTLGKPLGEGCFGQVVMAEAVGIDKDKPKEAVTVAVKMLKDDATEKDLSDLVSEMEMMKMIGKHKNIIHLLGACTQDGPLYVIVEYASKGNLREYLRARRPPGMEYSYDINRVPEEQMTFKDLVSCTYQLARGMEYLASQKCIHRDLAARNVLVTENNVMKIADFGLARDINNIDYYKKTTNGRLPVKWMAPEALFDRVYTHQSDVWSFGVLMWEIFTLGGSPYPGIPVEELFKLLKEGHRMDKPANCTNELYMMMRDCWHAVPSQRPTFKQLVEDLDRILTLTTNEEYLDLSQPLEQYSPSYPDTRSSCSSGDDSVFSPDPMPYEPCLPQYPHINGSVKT", "test": "Inhibition of human FGFR2 N549H mutant catalytic domain expressed in baculovirus assessed as substrate phosphorylation using fluorescence-labelled peptides as substrate at 0.06 uM after 90 mins by microfluidic peptide phosphorylation assay"}, "[5]": {"biological_target": "Serine/threonine-protein kinase pim-1 (Homo sapiens) (UniProt P11309)", "sequence (P11309 whole entry, looked up)": "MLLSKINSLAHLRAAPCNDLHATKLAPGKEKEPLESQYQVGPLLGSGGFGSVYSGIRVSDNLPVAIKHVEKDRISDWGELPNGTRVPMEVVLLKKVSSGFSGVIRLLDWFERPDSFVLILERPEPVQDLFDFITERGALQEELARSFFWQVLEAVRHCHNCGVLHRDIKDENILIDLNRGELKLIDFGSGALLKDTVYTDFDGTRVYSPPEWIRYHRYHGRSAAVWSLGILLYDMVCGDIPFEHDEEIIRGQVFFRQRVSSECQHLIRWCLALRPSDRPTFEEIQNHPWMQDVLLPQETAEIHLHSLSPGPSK", "test": "Inhibition of human full length PIM1 expressed in baculovirus assessed as substrate phosphorylation using fluorescence-labelled peptides as substrate at 420 uM after 90 mins by microfluidic peptide phosphorylation assay"}, "[6]": {"biological_target": "T2, Testis-specific serine/threonine-protein kinase 1 (Homo sapiens) (UniProt Q9BXA7)", "T2 sequence (whole entry)": "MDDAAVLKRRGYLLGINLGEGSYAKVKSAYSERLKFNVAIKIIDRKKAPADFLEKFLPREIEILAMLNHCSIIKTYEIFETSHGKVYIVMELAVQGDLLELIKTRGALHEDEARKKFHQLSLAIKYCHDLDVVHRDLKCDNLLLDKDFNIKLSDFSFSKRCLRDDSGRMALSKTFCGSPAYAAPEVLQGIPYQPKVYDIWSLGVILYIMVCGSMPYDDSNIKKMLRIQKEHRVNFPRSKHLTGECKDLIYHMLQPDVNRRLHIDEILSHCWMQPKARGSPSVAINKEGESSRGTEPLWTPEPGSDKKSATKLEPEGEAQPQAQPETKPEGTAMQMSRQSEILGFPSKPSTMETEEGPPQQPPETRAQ", "test": "Inhibition of human full length TSSK1 expressed in baculovirus assessed as substrate phosphorylation using fluorescence-labelled peptides as substrate at 70 uM after 90 mins by microfluidic peptide phosphorylation assay"}, "[7]": {"biological_target": "Mitogen-activated protein kinase 1 (Homo sapiens) (UniProt P28482)", "sequence (P28482 whole entry)": "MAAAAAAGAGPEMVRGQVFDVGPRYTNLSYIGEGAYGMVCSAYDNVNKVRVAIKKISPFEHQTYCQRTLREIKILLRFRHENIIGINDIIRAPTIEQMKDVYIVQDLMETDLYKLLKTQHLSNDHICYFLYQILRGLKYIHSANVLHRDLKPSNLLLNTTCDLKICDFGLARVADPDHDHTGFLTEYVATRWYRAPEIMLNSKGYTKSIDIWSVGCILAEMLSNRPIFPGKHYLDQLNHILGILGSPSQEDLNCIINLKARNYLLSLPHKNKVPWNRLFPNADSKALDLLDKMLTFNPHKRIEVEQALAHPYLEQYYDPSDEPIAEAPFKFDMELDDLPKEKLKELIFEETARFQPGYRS", "test": "Inhibition of human full length ERK2 expressed in Escherichia coli cell assessed as substrate phosphorylation using fluorescence-labelled peptides as substrate at 70 uM after 90 mins by microfluidic peptide phosphorylation assay"}, "[8]": {"biological_target": "Mitogen-activated protein kinase 1 (Homo sapiens) (UniProt P28482)", "test": "Inhibition of human full length ERK2 expressed in Escherichia coli cell assessed as substrate phosphorylation using fluorescence-labelled peptides as substrate at 0.2 uM after 90 mins by microfluidic peptide phosphorylation assay"}, "[9]": {"biological_target": "T3, Serine/threonine-protein kinase Sgk2 (Homo sapiens) (UniProt Q9HBY8)", "T3 sequence (whole entry)": "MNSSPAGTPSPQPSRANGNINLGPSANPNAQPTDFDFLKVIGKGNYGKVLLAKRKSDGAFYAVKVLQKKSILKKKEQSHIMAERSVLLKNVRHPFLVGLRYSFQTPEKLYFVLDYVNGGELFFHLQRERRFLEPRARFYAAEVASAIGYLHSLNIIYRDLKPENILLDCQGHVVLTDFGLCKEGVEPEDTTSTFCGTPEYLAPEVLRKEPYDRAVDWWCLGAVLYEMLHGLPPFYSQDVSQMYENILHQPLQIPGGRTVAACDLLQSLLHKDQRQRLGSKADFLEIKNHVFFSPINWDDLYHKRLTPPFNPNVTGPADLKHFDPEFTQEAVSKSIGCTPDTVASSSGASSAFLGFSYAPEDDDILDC", "test": "Inhibition of human full length SGK2 expressed in baculovirus assessed as substrate phosphorylation using fluorescence-labelled peptides as substrate at 2 uM after 90 mins by microfluidic peptide phosphorylation assay"}, "[10]": {"biological_target": "Dual specificity tyrosine-phosphorylation-regulated kinase 1A (Rattus norvegicus) (UniProt Q63470)", "test": "Inhibition of rat full length DYRK1a expressed in Escherichia coli cell assessed as substrate phosphorylation using fluorescence-labelled peptides as substrate at 8 uM after 90 mins by microfluidic peptide phosphorylation assay"}, "[11]": {"biological_target": "Mitogen-activated protein kinase 1 (Homo sapiens) (UniProt P28482)", "test": "Inhibition of human full length ERK2 expressed in Escherichia coli cell assessed as substrate phosphorylation using fluorescence-labelled peptides as substrate at 8 uM after 90 mins by microfluidic peptide phosphorylation assay"}, "[12]": {"biological_target": "Tyrosine-protein kinase Lyn (Homo sapiens) (UniProt P07948)", "sequence (P07948 2-512 limits assumed)": "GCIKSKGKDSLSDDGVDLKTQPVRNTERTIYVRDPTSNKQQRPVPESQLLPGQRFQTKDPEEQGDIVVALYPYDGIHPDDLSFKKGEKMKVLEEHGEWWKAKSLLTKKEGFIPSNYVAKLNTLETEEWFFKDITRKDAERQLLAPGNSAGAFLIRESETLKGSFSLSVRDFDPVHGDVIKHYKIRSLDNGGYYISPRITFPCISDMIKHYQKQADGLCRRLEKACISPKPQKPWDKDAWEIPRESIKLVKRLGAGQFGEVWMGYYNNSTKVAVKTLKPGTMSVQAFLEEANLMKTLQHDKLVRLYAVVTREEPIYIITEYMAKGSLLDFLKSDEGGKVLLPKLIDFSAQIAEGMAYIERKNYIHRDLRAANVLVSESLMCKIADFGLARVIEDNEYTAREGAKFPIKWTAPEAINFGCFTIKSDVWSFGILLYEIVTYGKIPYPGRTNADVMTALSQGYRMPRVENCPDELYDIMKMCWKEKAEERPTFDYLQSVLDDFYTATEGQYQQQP", "test": "Inhibition of human full length LYN expressed in baculovirus assessed as substrate phosphorylation using fluorescence-labelled peptides as substrate at 1000 uM after 90 mins by microfluidic peptide phosphorylation assay"}, "[13]": {"biological_target": "Serine/threonine-protein kinase PAK 2 (Homo sapiens) (UniProt Q13177)", "sequence (Q13177 whole entry, the tested form may be a part)": "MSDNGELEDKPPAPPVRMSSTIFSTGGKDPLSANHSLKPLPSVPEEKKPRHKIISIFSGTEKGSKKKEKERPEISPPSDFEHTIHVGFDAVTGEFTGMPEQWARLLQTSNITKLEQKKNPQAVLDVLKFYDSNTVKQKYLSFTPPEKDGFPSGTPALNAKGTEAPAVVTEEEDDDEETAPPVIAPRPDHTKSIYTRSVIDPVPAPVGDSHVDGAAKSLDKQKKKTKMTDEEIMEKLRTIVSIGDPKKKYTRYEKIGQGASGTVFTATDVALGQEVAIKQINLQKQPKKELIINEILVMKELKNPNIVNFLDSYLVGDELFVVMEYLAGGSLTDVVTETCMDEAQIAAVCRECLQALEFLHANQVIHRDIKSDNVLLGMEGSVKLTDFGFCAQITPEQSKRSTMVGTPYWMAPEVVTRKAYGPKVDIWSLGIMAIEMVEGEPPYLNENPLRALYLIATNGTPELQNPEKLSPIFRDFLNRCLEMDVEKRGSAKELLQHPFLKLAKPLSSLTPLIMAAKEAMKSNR", "test": "Inhibition of human truncated PAK2 expressed in Escherichia coli cell assessed as substrate phosphorylation using fluorescence-labelled peptides as substrate at 1000 uM after 90 mins by microfluidic peptide phosphorylation assay"}}}
{"compound": "NCCc1ccc(-c2ncnc3[nH]cnc23)cc1", "values": [{"measurement": "inhibition", "setting": "[1]", "value": 35, "unit": "%"}, {"measurement": "inhibition", "setting": "[2]", "value": 72, "unit": "%"}, {"measurement": "inhibition", "setting": "[3]", "value": 53.5, "unit": "%"}, {"measurement": "inhibition", "setting": "Homo sapiens", "value": 97.5, "unit": "%"}]}
{"compound": "NC1(Cc2ccc(Cl)cc2)CCN(c2ncnc3[nH]ccc23)CC1", "values": [{"measurement": "inhibition", "setting": "[4]", "value": 5, "unit": "%"}]}
{"compound": "c1nc(N2CCOCC2)c2nc[nH]c2n1", "values": [{"measurement": "inhibition", "setting": "[5]", "value": 31.5, "unit": "%"}]}
{"compound": "CNCc1ccc(-c2ncnc3[nH]cnc23)cc1", "values": [{"measurement": "inhibition", "setting": "[6]", "value": 62, "unit": "%"}, {"measurement": "inhibition", "setting": "[7]", "value": 29, "unit": "%"}]}
{"compound": "Clc1ccc(C2(c3ccc(-c4ncnc5[nH]cnc45)cc3)CCNCC2)cc1", "values": [{"measurement": "inhibition", "setting": "[8]", "value": 7, "unit": "%"}]}
{"compound": "NC1CCN(c2ncnc3[nH]ccc23)CC1", "values": [{"measurement": "inhibition", "setting": "[9]", "value": 46.5, "unit": "%"}]}
{"compound": "NCC1CCN(c2ncnc3[nH]ccc23)CC1", "values": [{"measurement": "inhibition", "setting": "[10]", "value": 54, "unit": "%"}, {"measurement": "inhibition", "setting": "[11]", "value": 7.5, "unit": "%"}]}
{"compound": "c1cnc2[nH]ccc2c1", "values": [{"measurement": "inhibition", "setting": "[12]", "value": 31.5, "unit": "%"}, {"measurement": "inhibition", "setting": "[13]", "value": 13.5, "unit": "%"}]}
